Data taken from US20240150293A1, “SPIROCYCLOHEXANE DERIVATIVES, PHARMACEUTICAL COMPOSITIONS CONTAINING THEM AND THEIR USES AS ANTI-APOPTOTIC INHIBITORS” (LES LABORATOIRES SERVIER, priority 2021, published 2024).
pIC50, pKi: −log10 of the molar value. Like-named read-outs stand apart in the source and are kept apart here.

How the values were obtained:
[1] = system: AMO-1 multiple myeloma xenograft; test: Quantification of the cleaved form of PARP in vivo, per os (Example C); set-up: species or system SCID mice; details: single dose per os, tumors recovered 16 hours after dosing
Experimental: The ability of the compounds of the invention to induce apoptosis was evaluated in vivo using the AMO-1 multiple myeloma xenograft.
1×10^7 cells were subcutaneously grafted into immunosuppressed SCID mice. 12-14 days later, when tumors had reached the appropriate volume, mice (3 per group) were treated once with the various compounds (per os, HEC 1%/Tween 80 99:1). Tumor samples were recovered 16 hours after dosing and lysed. Cleared lysates were used for cleaved PARP quantification (as a marker of apoptosis induction) using the Meso Scale Discovery (MSD) Elisa platform test. Results are expressed as the ratio between cleaved PARP in treated mice over control mice.

[2] = target: Cy5-labelled Mcl1 (amino acids 171-321) C286S protein (UniProtKB Q07820) (Homo sapiens (Human), UniProt Q07820, C286S); test: Inhibition of Mcl-1 by the fluorescence quenching assay (Example A, Method B); type: binding
Cy5-labelled Mcl1 (amino acids 171-321) C286S protein, sequence (Q07820 171-321 C286S): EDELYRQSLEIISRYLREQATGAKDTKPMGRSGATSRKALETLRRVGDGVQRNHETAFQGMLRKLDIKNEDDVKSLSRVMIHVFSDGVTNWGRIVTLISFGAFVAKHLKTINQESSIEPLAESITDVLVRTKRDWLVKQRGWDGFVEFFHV
Method in brief: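 Eleven-point compound series incubated 2 h at room temperature with 1 nM Cy5-tagged protein and quencher-labelled PUMA peptide at 10, 20 or 400 nM in HEPES/NaCl/Tween 20, pH 7.4, 5% DMSO. IC50 for 50% fluorescence increase by 4-parameter fit, then Ki derived (complete cKi or estimated eKi).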

NCI-H929 cell lines = test: In vitro cytotoxicity, CellTiter-Glo (CTG) assay (Example B, Method B); type: cell-based; details: Homo sapiens, NCI-H929, 48 h, NCI-H929 cells, 48 h incubation, read-out: C50
Method in brief: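 ATP-based luminescence (CellTiter-Glo) after 48 h incubation at 37° C., 5% CO2 gave NCI-H929 viability. Eleven concentrations tested, highest final 30 μM, dispensed acoustically from 10 mM DMSO stocks; C50 defined as concentration reaching 50% viability.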

[3] = system: AMO-1 multiple myeloma xenografts; test: Anti-tumor activity in vivo (Example D); set-up: species or system SCID mice
Experimental: The anti-tumor activity of the compounds of the invention was evaluated using AMO-1 multiple myeloma xenografts.
1×10^7 cells were subcutaneously grafted into immunosuppressed SCID mice. 7-10 days later, when the tumor mass had reached an average volume of about 150 mm^3, mice were treated with the various compounds once a week for 2 weeks (per os, HEC 1%/Tween 80 99:1). Tumor size was measured three times per week using electronic calipers.
At the end of the treatment cycle (d9), tumor growth inhibition (TGI) was calculated using the formula: […]
wherein DTV (Delta Tumor Volume) at Dx was calculated as follows: […]
(Tumor Volume at Dx)−(Tumor Volume at Randomization).

[4] = system: H929 multiple myeloma tumor line; test: In vitro cytotoxicity, MTT assay (Example B, Method A); type: cell-based; details: Homo sapiens, NCI-H929, 48 h, H929 cells, 48 hours exposure, read-out: C50
Experimental: The cytotoxicity studies were carried out on the H929 multiple myeloma tumor line.
The cells are distributed onto microplates and exposed to the test compounds for 48 hours. The cell viability is then quantified by a colorimetric assay, the Microculture Tetrazolium Assay (Carmichael et al, Cancer Res. 1987, 47, 939-942).
The results are expressed in C50 which means concentration corresponding to […] of effect/inhibition.

[5] = 30 mpk per os once a week for 2 weeks
[6] = 60 mpk per os once a week for 2 weeks
[7] = 120 mpk per os once a week for 2 weeks

SMILES | Cleaved PARP (fold to control) ([1]; 30 mpk) | Cleaved PARP (fold to control) ([1]; 60 mpk) | Cleaved PARP (fold to control) ([1]; 120 mpk) | pKi [2] | pIC50 (NCI-H929 cell lines) | % TGI (d9) [3, 5] [%] | % TGI (d9) [3, 6] [%] | % TGI (d9) [3, 7] [%] | pKi ([2]; Ki determined from IC50) | pIC50 [4]
COC(C)(C)c1ccc2c(c1)[C@]1(CC[C@@](Nc3cccc(Cl)c3)(C(=O)O)CC1)[C@@H](C[C@@H](C)COc1ccnc3c1[C@H](C)CCC3)C2 [Example 866, (1r,2′S,4S)-4-(3-chloroanilino)-6′-(2-methoxypropan-2-yl)-2′-[(2R)-2-methyl-3-{[(5R)-5-methyl-5,6,7,8-tetrahydroquinolin-4-yl]oxy}propyl]-2′,3′-dihydrospiro[cyclohexane-1,1′-indene]-4-carboxylic acid] | 1.2 fold to control | 6.5 fold to control | 6.3 fold to control | 10.67 | – | – | – | – | – | –
C[C@@H](COc1ccnc2c1[C@H](C)CCC2)C[C@H]1Cc2cc(F)ccc2[C@]12CC[C@@](Nc1cccc(Cl)c1)(C(=O)O)CC2 [Example 768, (1r,2′S,4S)-4-(3-chloroanilino)-5′-fluoro-2′-[(2R)-2-methyl-3-{[(5R)-5-methyl-5,6,7,8-tetrahydroquinolin-4-yl]oxy}propyl]-2′,3′-dihydrospiro[cyclohexane-1,1′-indene]-4-carboxylic acid] | 0.8 fold to control | 15.4 fold to control | 30.3 fold to control | 9.96 | 7.30 | – | – | – | – | –
COc1ccc2c(c1)[C@]1(CC[C@@](Nc3cccc(Cl)c3)(C(=O)O)CC1)[C@@H](C[C@@H](C)COc1ccnc3c1[C@H](C)CCC3)C2 [Example 781, (1r,2′S,4S)-4-(3-chloroanilino)-6′-methoxy-2′-[(2R)-2-methyl-3-{[(5R)-5-methyl-5,6,7,8-tetrahydroquinolin-4-yl]oxy}propyl]-2′,3′-dihydrospiro[cyclohexane-1,1′-indene]-4-carboxylic acid] | 11.6 fold to control | 4.5 fold to control | – | 9.63 | 7.08 | 76.4 | 107.8 | – | – | –
COc1cc2c(cc1Cl)C[C@H](C[C@@H](C)COc1ccnc3c1[C@H](C)CCC3)[C@]21CC[C@](Nc2cccc(Cl)c2)(C(=O)O)CC1 [Example 815, (1r,2′S,4S)-5′-chloro-4-(3-chloroanilino)-6′-methoxy-2′-[(2R)-2-methyl-3-{[(5R)-5-methyl-5,6,7,8-tetrahydroquinolin-4-yl]oxy}propyl]-2′,3′-dihydrospiro[cyclohexane-1,1′-indene]-4-carboxylic acid] | – | 2.3 fold to control | 4.6 fold to control | 9.60 | 7.06 | – | 18.7 | 66.8 | – | –
CC(C)Oc1ccc2c(c1)[C@]1(CC[C@@](Nc3cccc(Cl)c3)(C(=O)O)CC1)[C@@H](C[C@@H](C)COc1ccnc3c1[C@H](C)CCC3)C2 [Example 786, (1r,2′S,4S)-4-(3-chloroanilino)-2′-[(2R)-2-methyl-3-{[(5R)-5-methyl-5,6,7,8-tetrahydroquinolin-4-yl]oxy}propyl]-6′-[(propan-2-yl)oxy]-2′,3′-dihydrospiro[cyclohexane-1,1′-indene]-4-carboxylic acid] | – | – | – | 10.10 | 7.11 | 43.2 | 98.9 | – | – | –
C[C@@H](COc1ccnc2c1[C@H](C)CCC2)CN1Cc2cc(F)ccc2[C@]12CC[C@@](Nc1cccc(Cl)c1)(C(=O)O)CC2 [Example 41, (1s,4S)-4-(3-chloroanilino)-5′-fluoro-2′-[(2R)-2-methyl-3-{[(5R)-5-methyl-5,6,7,8-tetrahydroquinolin-4-yl]oxy}propyl]-2′,3′-dihydrospiro[cyclohexane-1,1′-isoindole]-4-carboxylic acid] | – | – | – | – | 6.94 | 1 | 7.4 | 66.8 | 9.45 | –
Cc1cc2c(cc1C)[C@]1(CC[C@@](Nc3cccc(Cl)c3)(C(=O)O)CC1)[C@@H](C[C@@H](C)COc1ccnc3c1[C@H](C)CCC3)C2 [Example 854, (1r,2′S,4S)-4-(3-chloroanilino)-5′,6′-dimethyl-2′-[(2R)-2-methyl-3-{[(5R)-5-methyl-5,6,7,8-tetrahydroquinolin-4-yl]oxy}propyl]-2′,3′-dihydrospiro[cyclohexane-1,1′-indene]-4-carboxylic acid] | 6.9 fold to control | 26.4 fold to control | 29.1 fold to control | 9.34 | 6.83 | 32 | 95.2 | 111.8 | – | –
C[C@@H](COc1ccnc2c1[C@H](C)CCC2)CN1Cc2cc3c(cc2[C@]12CC[C@@](Nc1cccc(Cl)c1)(C(=O)O)CC2)OCO3 [Example 44, (1s,4S)-4-(3-chloroanilino)-6′-[(2R)-2-methyl-3-{[(5R)-5-methyl-5,6,7,8-tetrahydroquinolin-4-yl]oxy}propyl]-6′,7′-dihydro-2′H-spiro[cyclohexane-1,5′-[1,3]dioxolo[4,5-f]isoindole]-4-carboxylic acid] | 0.7 fold to control | 0.7 fold to control | 1.4 fold to control | – | 7.27 | – | – | – | 9.90 | –
C[C@@H](COc1ccnc2c1[C@H](C)CCC2)C[C@H]1Cc2cc3c(cc2[C@]12CC[C@@](Nc1cccc(Cl)c1)(C(=O)O)CC2)OCCO3 [Example 838, (1r,4S,7′S)-4-(3-chloroanilino)-7′-[(2R)-2-methyl-3-{[(5R)-5-methyl-5,6,7,8-tetrahydroquinolin-4-yl]oxy}propyl]-2′,3′,7′,8′-tetrahydrospiro[cyclohexane-1,6′-indeno[5,6-b][1,4]dioxine]-4-carboxylic acid] | 15 fold to control | 7.8 fold to control | – | 10.47 | 7.67 | – | 129.2 | – | – | –
Cc1c(Cl)cccc1N[C@]1(C(=O)O)CC[C@]2(CC1)c1ccccc1C[C@@H]2C[C@@H](C)COc1ccnc2c1[C@H](C)CCC2 [Example 708, (1r,2′S,4S)-4-(3-chloro-2-methylanilino)-2′-[(2R)-2-methyl-3-{[(5R)-5-methyl-5,6,7,8-tetrahydroquinolin-4-yl]oxy}propyl]-2′,3′-dihydrospiro[cyclohexane-1,1′-indene]-4-carboxylic acid] | – | – | 12.6 fold to control | 9.44 | 6.97 | – | – | – | – | –
C[C@@H](COc1ccnc2c1[C@H](C)CCC2)CN1Cc2cc(F)ccc2[C@]12CC[C@@](Nc1ccc(F)c(Cl)c1)(C(=O)O)CC2 [Example 42, (1s,4S)-4-(3-chloro-4-fluoroanilino)-5′-fluoro-2′-[(2R)-2-methyl-3-{[(5R)-5-methyl-5,6,7,8-tetrahydroquinolin-4-yl]oxy}propyl]-2′,3′-dihydrospiro[cyclohexane-1,1′-isoindole]-4-carboxylic acid] | – | – | 5 fold to control | – | – | – | 25.8 | 114.1 | 9.53 | 7.47
C[C@@H](COc1ccnc2c1[C@H](C)CCC2)C[C@@H]1Cc2ccc(-c3ccc[nH]3)cc2[C@]12CC[C@@](Nc1cccc(Cl)c1)(C(=O)O)CC2 [Example 880, (1r,2′R,4R)-4-(3-chloroanilino)-2′-[(2R)-2-methyl-3-{[(5R)-5-methyl-5,6,7,8-tetrahydroquinolin-4-yl]oxy}propyl]-6′-(1H-pyrrol-2-yl)-2′,3′-dihydrospiro[cyclohexane-1,1′-indene]-4-carboxylic acid] | – | – | – | 8.91 | 6.08 | – | – | – | – | –
C[C@@H](COc1ccnc2c1[C@H](C)CCC2)C[C@H]1Cc2ccc(-c3cccn3C)cc2[C@]12CC[C@@](Nc1cccc(Cl)c1)(C(=O)O)CC2 [Example 881, (1r,2′S,4S)-4-(3-chloroanilino)-2′-[(2R)-2-methyl-3-{[(5R)-5-methyl-5,6,7,8-tetrahydroquinolin-4-yl]oxy}propyl]-6′-(1-methyl-1H-pyrrol-2-yl)-2′,3′-dihydrospiro[cyclohexane-1,1′-indene]-4-carboxylic acid] | – | – | – | 9.81 | 6.82 | – | – | – | – | –
